Results reported in patent US20080038809A1, “ISOLATED LECTIN POLYPEPTIDES CONSISTING OF TRUNCATED […] UDP-GalNAc:POLYPEPTIDE N- ACETYLGALACTOSAMINYLTRANSFERASES” (GLYCOZYM APS, priority 2002, published 2008).
“Also recorded” adds a separate entry of the source.

Tests used:
[1] = test system: GalNAc-T2 and -T4 secreted soluble enzymes as well as lectin domains; test: Inhibition of GalNAc-transferase lectin binding to GalNAc-glycopeptides, statements on GalNAc-T2 and -T4 together; parameters: species or system human; conditions: enzymes and isolated lectins
Procedure: (§1) Direct binding ELISA assay was developed as follows: Polystyrene microtiter plates (Maxisorb, Nunc, Denmark) were coated with peptides or enzymatically glycosylated glycopeptides in PBS overnight at 4° C. Plates were washed and blocked with 0.1% Tween20 and 0.2% BSA in PBS for 1 h at room temperature, followed by incubation with biotinylated proteins in PBS with 0.05% Tween20 for 2 h at room temperature. After four washes with PBS, plates were incubated with 1:2,000 dilution streptavidin-HRP (Sigma) in PBS for 30 min at room temperature and washed four times with PBS. Development was performed with 0.5 mg/ml o-phenylenediamine and 0.02% H2O2 at room temperature for 15 min, and reaction stopped by adding 100 μl/well of 0.5 N H2SO4. Competitive inhibition assays were done at end-point titers of GalNAc-transferase proteins with one hour preincubations with inhibitor.
Lectins and antibodies to carbohydrates usually recognize the anomeric configuration of the sugar structures they bind.
(§2) Inhibition experiments were used to further define the binding specificity of GalNAc-T2 and -T4 secreted soluble enzymes as well as lectin domains compared to Helix Pomatia lectin (Table IV).

[2] = molecular target: T1, secreted soluble GalNAc-T4 (Homo sapiens, UniProt Q8N4A0); test: Inhibition of secreted soluble GalNAc-T4 (sT4) binding to GalNAc-MUC1 glycopeptide, ELISA
T1 construct: 6xHis (N); thrombin cleavage site (N); T7 antibody site (N); made in house; host or cells: baculovirus (pAcGP67A), High Five insect cells
Procedure: as §1, §2

[3] = test system: MUC1 in CHO1d1D/MUC1F-clone2 cells; test: MUC1 expression in cell lysates, immunoprecipitation and SDS-PAGE western blot (FIGS. 12-15); format: cell-based, Chinese Hamster; conditions: 2 mM; for SDS-PAGE migration of MUC1 (O-glycosylation): cells grown in Gal and GalNAc
Procedure: FIG. 12 is an SDS-PAGE Western analysis of GalNAcα-benzyl inhibition of MUC1 expression in CHO 1d1D cells stably transfected with a full coding MUC1 construct. […] Cells were further treated with 2 mM GalNAcα-benzyl (lanes 1, 4, 7, 10), 2 mM GlcNAcα-benzyl (lanes 2, 5, 8, 11) or no inhibitor (lanes 3, 6, 9, 12). Cells were washed and lysed at 24 or 48 hours and the lysates subjected to immunoprecipitation with monoclonal antibody HMFG2, which broadly recognize MUC1 glycoforms. Immunoprecipitates were analysed by SDS-PAGE and western blot using HMFG2 antibody to detect MUC1 expression. Lane M indicates molecular markers with assigned mw. Lane C includes a control MUC1 180-mer tandem repeat peptide which has been GalNAc-glycosylated with 3 moles GalNAc per repeat using GalNAc-T2. The sharp bands migrating at 100-200 kd are immunoglobulins indicated by IgG.
Cells were further treated with 2 mM GalNAcα-benzyl (lanes 1, 4, 7, 10), 2 mM GalNAcβ-benzyl (lanes 2, 5, 8, 11) or 2 mM GlcNAcα-benzyl (lanes 3, 6, 9, 12). Cells were washed and lysed at 36 hours and the lysates subjected to immunoprecipitation with monoclonal antibodies HMFG2 (lanes 1-6) or 5E5 (lanes 7-12). Immunoprecipitates were analysed by SDS-PAGE and western blot using HMFG2 antibody. Lanes M and C as described in legend to FIG. 7.
We next analysed the expression of MUC1 produced by CHO1d1D/MUC1F-clone2 cells by SDS-PAGE western analysis. […] Cells were further treated with 2 mM GalNAcα-benzyl, GlcNAcα-benzyl or no inhibitor. Cells were washed and lysed at 24 or 48 hours and the lysates subjected to immunoprecipitation with monoclonal antibody HMFG2, which broadly recognize MUC1 glycoforms. Immunoprecipitates were analysed by SDS-PAGE and western blot using HMFG2 antibody to detect MUC1 expression. […] In striking contrast, treatment with GalNAcα-benzyl had significant effect after 48 hours. […] This indicates some heterogeneity in glycosylation.
As shown in Examples 2 and 3, polypeptide GalNAc-transferases contain lectin domains with binding properties for GalNAc-peptides including GalNAc-MUC1 peptides. […] GalNAcβ-benzyl, the β-anomeric configuration of GalNAc-benzyl (there is a β linkage between the N-acetylgalactosamine and the benzyl ring), was custom synthesized by Alberta Research Council (Canada), and its structure was confirmed by mass spectrometry and ^1H-NMR. […] Cells were then treated with 2 mM GalNAcα-benzyl, GalNAcβ-benzyl, or GlcNAcα-benzyl as control (GlcNAcα-benzyl was shown in Example 4 to have no effect). Cells were washed and lysed as described above after 36 hours and the lysates subjected to immunoprecipitation with anti-MUC1 monoclonal antibodies HMFG2 or 5E5. […] FIG. 15 illustrates the same experiment as in FIG. 14 except that the detection antibody is 5E5 and only Tn and STn MUC1 glycoforms are visualised.

[4] = test system: secreted MUC1, wild type CHO/MUC1sol-cloneC4; test: MUC1 secretion by western blot of medium; format: cell-based, Chinese hamster (CHO cells); human MUC1; conditions: 1-2 mM
Source text: Because GalNAcα-benzyl exerts separate effects on O-glycan processing and mucin expression, the use of the novel selective inhibitor of mucin expression, GalNAcβ-benzyl, allow analysis of mucin expression and secretion in different cell line models. Examples of human cell lines (available from ATCC, USA) expressing and secreting mucins are without limitations LS174T, HT29, Colo205, CALU, MCF7, T47D, NCI-H292, and A549. Most human adenocarcinoma cell lines express and secret mucins and analysis with antibodies to detect protein expression or probes to detect mRNA can reveal the types and quantities of mucins. […] This and other cell lines can be used to treat with 2 mM GalNAcβ-benzyl. In this Example we used wild type CHO/MUC1sol-cloneC4 and western blot analysis of medium of cells treated with 1-2 mM GalNAcα-benzyl, GalNAcβ-benzyl, or the control GlcNAcα-benzyl. […] The inhibitory effect on mucin secretion can be quantified by a number of assays known to the skilled in the art including western blot, ELISA, gelfiltration, immunocapture, and other assays.

[5] = molecular target: β3Gal-T4 (Homo sapiens, UniProt O96024); conditions: cited from earlier work
Chain of β3Gal-T4 (O96024 whole entry): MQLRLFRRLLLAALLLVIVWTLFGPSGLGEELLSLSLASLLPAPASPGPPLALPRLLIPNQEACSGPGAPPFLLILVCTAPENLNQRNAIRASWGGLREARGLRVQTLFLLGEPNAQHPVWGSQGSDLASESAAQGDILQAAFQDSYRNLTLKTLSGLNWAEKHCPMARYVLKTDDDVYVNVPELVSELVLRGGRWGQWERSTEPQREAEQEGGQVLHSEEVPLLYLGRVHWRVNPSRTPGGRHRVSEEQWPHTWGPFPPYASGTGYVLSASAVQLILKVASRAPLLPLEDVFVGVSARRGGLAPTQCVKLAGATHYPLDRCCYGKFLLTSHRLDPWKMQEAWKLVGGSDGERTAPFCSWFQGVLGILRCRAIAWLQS

T1 sequence (Q8N4A0 36-578 limits assumed): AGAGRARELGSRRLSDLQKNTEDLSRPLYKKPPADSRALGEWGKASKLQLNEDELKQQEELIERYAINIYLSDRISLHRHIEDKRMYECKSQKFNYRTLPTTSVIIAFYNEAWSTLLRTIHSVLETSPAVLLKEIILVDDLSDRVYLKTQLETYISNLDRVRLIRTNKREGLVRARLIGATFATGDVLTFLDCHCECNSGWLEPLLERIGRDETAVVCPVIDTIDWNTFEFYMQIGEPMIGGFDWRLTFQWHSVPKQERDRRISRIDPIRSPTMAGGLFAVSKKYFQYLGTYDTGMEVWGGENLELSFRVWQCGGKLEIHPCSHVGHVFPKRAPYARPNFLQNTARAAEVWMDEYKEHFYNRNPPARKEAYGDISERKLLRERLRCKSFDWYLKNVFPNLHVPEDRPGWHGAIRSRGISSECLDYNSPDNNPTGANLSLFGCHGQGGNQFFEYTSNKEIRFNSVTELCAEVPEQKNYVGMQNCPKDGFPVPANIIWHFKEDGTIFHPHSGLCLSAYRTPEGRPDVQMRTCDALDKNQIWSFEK

| SMILES | inhibition of GalNAc-T2 and -T4 lectin mediated binding, in words [1] | IC50 [2] [µM] | MUC1 expression ([3]; 24 hours, HMFG2 blot) | MUC1 expression ([3]; 36 hours, 5E5 blot (FIG. 15)) | MUC1 expression ([3]; 36 hours, HMFG2 blot (FIG. 14)) | MUC1 expression ([3]; 48 hours, HMFG2 blot, cells grown in GalNAc or Gal and GalNAc) | SDS-PAGE migration of MUC1 (O-glycosylation) ([3]; 48 hours, listed as GalNAcα-benzyl) | inhibition of secreted MUC1 [4] | SDS-PAGE migration of MUC1 (O-glycosylation) ([3]; 36 hours) | activity of β3Gal-T4 with the compound as acceptor [5] |
| --- | --- | --- | --- | --- | --- | --- | --- | --- | --- | --- |
| CC(=O)N[C@H]1[C@@H](OCc2ccccc2)O[C@H](CO)[C@H](O)[C@@H]1O [BzlαGalNAc, benzyl-N-acetyl-alpha-D-galactosaminide] | equal inhibition | 1000 | no significant effect | strong inhibition | significant reduction | significant reduction | significant shift in migration; also recorded: marked shift in migration |  |  |  |
| CC(=O)N[C@H]1[C@@H](OCc2ccccc2)O[C@H](CO)[C@H](O)[C@@H]1O [GalNAcα-benzyl, benzyl-N-acetyl-alpha-D-galactosaminide] |  |  |  |  |  |  |  | inhibition of secreted MUC1 |  |  |
| CC(=O)N[C@H]1[C@H](OCc2ccccc2)O[C@H](CO)[C@H](O)[C@@H]1O [GalNAcβ-benzyl] | equal inhibition |  |  | strong inhibition; also recorded: same or better reduction | significant reduction; also recorded: same or better reduction |  |  | inhibition of secreted MUC1 | does not interfere with O-glycosylation; also recorded: no change in the migration | no or very poor activity |
